The record followed here is ChEMBL document CHEMBL1201862, “PubChem BioAssay data set” (2004).

Among the test systems are PC-3; U-251; M14; RXF 393; MDA-N; UACC-62; SW-620; NCI-H226; NCI/ADR-RES; HL-60; HT-29; SNB-19; SF-268; MOLT-4; HCC 2998; HOP-62; KM12; A549; HCT-15.
What all share (experiment): inhibition of tumour cell growth, NCI panel, 48 h

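Five concentrations, 48 hours, 96-well plates. Here, GI50 denotes the concentration required for 50% inhibition of growth.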 Active and inactive are the calls of the source. No stated cut-off is given here; in the data, active = GI50 up to about 1.1 µM and inactive = higher.

As for `O=C(O)c1c(-c2c3ccc(=O)cc-3oc3cc(O)ccc23)cc2ccccc2c1-c1ccccc1`, the GI50 with PC-3, in the assay with U-251, with M14, in the assay with RXF 393, in the assay with MDA-N and with UACC-62 was > 100 µM (inactive) in each case. For the same compound, the GI50 with SW-620 was > 100 µM (inactive); in the assay on NCI-H226 it was > 100 µM (inactive); in the assay on NCI/ADR-RES it was > 100 µM (inactive); in the assay with HL-60 it was > 74.6 µM (inactive); with HT-29, > 100 µM (inactive); in the assay on SNB-19 it was > 100 µM (inactive). Further, the GI50 in the assay on SF-268 was > 100 µM (inactive); in the assay with MOLT-4, 4.85 µM (inactive); in the assay on HCC 2998, > 34 µM (inactive); in the assay on HOP-62, > 100 µM (inactive); with KM12, > 100 µM (inactive); in the assay with A549, > 100 µM (inactive). In addition, the GI50 in the assay with HCT-15 was over 100 µM.

Regarding `CC(C)C(Br)CCC1=CCC(Br)(Br)C1` (configuration not stated), the GI50 with PC-3 is 14.9 µM (inactive); with U-251, 15.4 µM (inactive); with M14, 3.81 µM (inactive); in the assay with RXF 393, 15.2 µM (inactive); in the assay with MDA-N it was 2.94 µM (inactive); with UACC-62, 6.58 µM (inactive). Also, the GI50 in the assay on SW-620 was 3.52 µM (inactive); with NCI-H226, 11.9 µM (inactive); in the assay on NCI/ADR-RES, 22.6 µM (inactive); in the assay on HL-60, 3.4 µM (inactive); with HT-29, 13.5 µM (inactive); in the assay with SNB-19, 18 µM (inactive). Also, the GI50 is 16.8 µM (inactive) with SF-268; 3.48 µM (inactive) with MOLT-4; 14.9 µM (inactive) in the assay on HCC 2998; 17 µM (inactive) in the assay on HOP-62; 13.3 µM (inactive) in the assay with KM12; 17.9 µM (inactive) in the assay on A549.

For `CCCCCCCCCCCCCCCCCc1cccc(OCOCCOC)c1C(=O)O`, the GI50 in the assay with PC-3 was 17.1 µM (inactive); in the assay on U-251, 20.3 µM (inactive); in the assay on M14 it was 16.5 µM (inactive); with RXF 393, 17.9 µM (inactive); in the assay with MDA-N, 19.1 µM (inactive); in the assay on UACC-62, 17.7 µM (inactive). In addition, the GI50 was 20.3 µM (inactive) in the assay on SW-620; 17 µM (inactive) with NCI-H226; 14.5 µM (inactive) in the assay on NCI/ADR-RES; 20.9 µM (inactive) in the assay on HL-60; 17.1 µM (inactive) in the assay on HT-29; 21.3 µM (inactive) with SNB-19. In addition, the GI50 in the assay with SF-268 was 17.2 µM (inactive); with MOLT-4, 21.5 µM (inactive); in the assay on HCC 2998, 19.1 µM (inactive); in the assay with HOP-62, 18.8 µM (inactive); with KM12, 17.1 µM (inactive); in the assay on A549 it was 18.7 µM (inactive). In the assay with HCT-15, this compound gave a GI50 of 19.3 µM.

Regarding `C=CCC1(OC(C)=O)C2OC(=O)C1(O)OCC2O` (configuration not stated), the GI50 in the assay with PC-3 is > 100 µM (inactive); in the assay with U-251, > 100 µM (inactive); in the assay with M14 it was > 100 µM (inactive); in the assay with RXF 393 it was > 100 µM (inactive); in the assay on MDA-N, > 100 µM (inactive); in the assay with UACC-62, > 59.3 µM (inactive). Moreover, the GI50 in the assay on SW-620, with NCI-H226, in the assay on NCI/ADR-RES, in the assay on HL-60, with HT-29 and in the assay with SNB-19 was > 100 µM (inactive) each time. In addition, the GI50 in the assay on SF-268, with MOLT-4, with HCC 2998, in the assay with HOP-62, in the assay with KM12 and in the assay on A549 was > 100 µM (inactive) each time. Besides, the GI50 with HCT-15 was over 100 µM.

For `O=c1c(-c2nc3ccccc3c3ccccc3c2=O)nc2ccccc2c2ccccc12`, the GI50 in the assay on PC-3 is 27.7 µM (inactive); with U-251, 22.2 µM (inactive); in the assay on M14, 35.2 µM (inactive); with RXF 393 it was 26.8 µM (inactive); with MDA-N, 24.3 µM (inactive); with UACC-62, 30.2 µM (inactive). Besides, the GI50 with SW-620 is 33.7 µM (inactive); in the assay on NCI-H226 it was > 100 µM (inactive); in the assay on NCI/ADR-RES, 34 µM (inactive); in the assay with HL-60 it was 20 µM (inactive); with HT-29, 43.5 µM (inactive); with SNB-19, 30.3 µM (inactive). In addition, the GI50 in the assay with SF-268 was 41 µM (inactive); in the assay with MOLT-4 it was 34.6 µM (inactive); in the assay with HCC 2998, 21.9 µM (inactive); in the assay with HOP-62, 34.8 µM (inactive); in the assay with KM12, 38.3 µM (inactive); in the assay with A549 it was 48 µM (inactive). The compound further showed a GI50 with HCT-15 of 32.7 µM.

Take `CCOC(=O)/C=C(\C(=O)OCC)n1ccc(=O)[nH]c1=O`: the GI50 was 16.9 µM (inactive) in the assay on PC-3; 17.4 µM (inactive) in the assay with U-251; 16.5 µM (inactive) in the assay on M14; 10.6 µM (inactive) in the assay with RXF 393; 22.6 µM (inactive) with MDA-N; 16.4 µM (inactive) in the assay with UACC-62. For the same compound, the GI50 is 2.64 µM (inactive) with SW-620; 13.3 µM (inactive) in the assay with NCI-H226; 26.2 µM (inactive) with NCI/ADR-RES; 2.44 µM (inactive) in the assay on HL-60; 15.2 µM (inactive) in the assay on HT-29; 52.2 µM (inactive) with SNB-19. In addition, the GI50 in the assay with SF-268 was 20 µM (inactive); with MOLT-4, 3.44 µM (inactive); with HCC 2998 it was 22.4 µM (inactive); in the assay with HOP-62, 26.9 µM (inactive); in the assay with KM12 it was 17.9 µM (inactive); in the assay on A549, 29.8 µM (inactive). Moreover, in the assay with HCT-15, the GI50 is 6.27 µM.

Consider `COc1ccc(N2C(=O)C3c4[nH]c5ccc([N+](=O)[O-])cc5c4C4CCC(C(C)(C)C)CC4C3C2=O)cc1` (configuration not stated), for which the GI50 in the assay on PC-3 is 5.21 µM (inactive); in the assay on U-251 it was 19.3 µM (inactive); with M14, 14.8 µM (inactive); in the assay on RXF 393, 3.33 µM (inactive); in the assay with MDA-N it was 20.3 µM (inactive); in the assay on UACC-62, 24 µM (inactive). Besides, the GI50 is 37.1 µM (inactive) with SW-620; 28 µM (inactive) in the assay on NCI-H226; 9.62 µM (inactive) in the assay on NCI/ADR-RES; 8.02 µM (inactive) in the assay with HL-60; 3.96 µM (inactive) in the assay with HT-29; 35.7 µM (inactive) in the assay on SNB-19. For the same compound, the GI50 with SF-268 is 10.1 µM (inactive); in the assay with MOLT-4 it was 14.3 µM (inactive); with HCC 2998, 10.9 µM (inactive); with HOP-62, 24.4 µM (inactive); in the assay with KM12, 6.5 µM (inactive); in the assay on A549, 6.28 µM (inactive). This compound gave a GI50 in the assay with HCT-15 of 14.4 µM.

Turning to `NC(=O)NC(=O)c1cccc(NC(=O)CCl)c1`, the GI50 was 1.08 µM (active) in the assay on PC-3; 0.975 µM (active) in the assay on U-251; 1.04 µM (active) in the assay with RXF 393; 0.385 µM (active) with MDA-N; 0.687 µM (active) in the assay with UACC-62; 0.621 µM (active) in the assay with SW-620. The GI50 was 2.19 µM (inactive) in the assay on NCI-H226; 1.65 µM (inactive) in the assay with NCI/ADR-RES; 0.569 µM (active) in the assay on HL-60; 0.883 µM (active) in the assay on HT-29; 1.91 µM (inactive) in the assay with SF-268; 1.11 µM (active) in the assay with MOLT-4. In addition, the GI50 was 0.764 µM (active) with HCC 2998, 1.61 µM (inactive) in the assay with HOP-62, 0.579 µM (active) in the assay with KM12 and 0.948 µM with HCT-15.

Regarding `COc1cc(/C=C2\Sc3scc(-c4cccc([N+](=O)[O-])c4)[n+]3C2=O)cc(OC)c1OC`, the GI50 in the assay on PC-3 is 21.4 µM (inactive); in the assay with U-251 it was 11.6 µM (inactive); in the assay on M14, 11.7 µM (inactive); in the assay with RXF 393, 12.5 µM (inactive); in the assay on MDA-N, 11.9 µM (inactive); with UACC-62, 11.3 µM (inactive). The GI50 was 9.1 µM (inactive) with SW-620; 5.2 µM (inactive) with NCI-H226; 17.4 µM (inactive) in the assay on NCI/ADR-RES; 36.7 µM (inactive) with HL-60; 13.1 µM (inactive) in the assay on HT-29; 16.7 µM (inactive) in the assay on SNB-19. The GI50 with SF-268 was 11.8 µM (inactive); with MOLT-4, 3.21 µM (inactive); with HCC 2998, 14.5 µM (inactive); in the assay on HOP-62 it was 16.6 µM (inactive); in the assay with KM12, 17.8 µM (inactive); in the assay with A549, 19.2 µM (inactive).

Turning to `Cc1cccc2c1C(=O)C(C1OC(=O)c3ccccc31)C2` (configuration not stated), the GI50 was > 100 µM (inactive) in the assay with PC-3; 61 µM (inactive) in the assay on U-251; 45.6 µM (inactive) in the assay on RXF 393; > 100 µM (inactive) in the assay with MDA-N; 45.7 µM (inactive) in the assay with UACC-62; > 100 µM (inactive) in the assay with SW-620. In addition, the GI50 with NCI-H226 is > 100 µM (inactive); with NCI/ADR-RES it was > 100 µM (inactive); in the assay with HL-60 it was > 100 µM (inactive); in the assay with HT-29 it was > 100 µM (inactive); in the assay with SNB-19, > 100 µM (inactive); with SF-268, 79.6 µM (inactive). The GI50 was > 100 µM (inactive) in the assay with MOLT-4; > 100 µM (inactive) in the assay with HCC 2998; > 100 µM (inactive) in the assay on HOP-62; > 100 µM (inactive) with KM12; > 100 µM (inactive) in the assay on A549; over 100 µM in the assay with HCT-15.

Consider `CC1OC(OC2C[C@](O)(C(=O)CBr)Cc3c(O)c4c(c(O)c32)C(=O)c2ccccc2C4=O)C(F)C(O)C1O` (some centres not stated), for which the GI50 was 13.4 µM (inactive) with PC-3; 5.83 µM (inactive) in the assay on U-251; 7.14 µM (inactive) with M14; 18.5 µM (inactive) in the assay with RXF 393; 16.3 µM (inactive) in the assay on MDA-N; 10.8 µM (inactive) in the assay on UACC-62. Besides, the GI50 in the assay on SW-620 was 2.69 µM (inactive); in the assay with NCI-H226 it was 12.7 µM (inactive); with NCI/ADR-RES, 15.8 µM (inactive); with HL-60, 0.838 µM (active); in the assay with HT-29 it was 12.1 µM (inactive); with SNB-19, 5.86 µM (inactive). Further, the GI50 with SF-268 is 13.5 µM (inactive); with HCC 2998 it was 36.3 µM (inactive); with HOP-62 it was 3.72 µM (inactive); in the assay on KM12 it was 19.6 µM (inactive); in the assay on A549, 4.67 µM (inactive); in the assay on HCT-15 it was 5.86 µM.
